Measured values taken from patent US20260250250A1, “3-(SULPHONYL OR SULFONIMIDOYL)PROP-2-EN-1-YL]-2-OXO-1,2-DIHYDROPYRIDINE-3-CARBOXAMIDE DERIVATIVES” (Flinder Therapeutics B.V., priority 2022, published 2026).

Assays:
[1] = biological target: T1, human E3 ubiquitin-protein ligase RNF31 (HOIP) (Homo sapiens, UniProt Q96EP0); assay: Cell-free HTRF-based HOIP inhibition assay; assay type: biochemical
T1 sequence (Q96EP0 695-1072 limits assumed): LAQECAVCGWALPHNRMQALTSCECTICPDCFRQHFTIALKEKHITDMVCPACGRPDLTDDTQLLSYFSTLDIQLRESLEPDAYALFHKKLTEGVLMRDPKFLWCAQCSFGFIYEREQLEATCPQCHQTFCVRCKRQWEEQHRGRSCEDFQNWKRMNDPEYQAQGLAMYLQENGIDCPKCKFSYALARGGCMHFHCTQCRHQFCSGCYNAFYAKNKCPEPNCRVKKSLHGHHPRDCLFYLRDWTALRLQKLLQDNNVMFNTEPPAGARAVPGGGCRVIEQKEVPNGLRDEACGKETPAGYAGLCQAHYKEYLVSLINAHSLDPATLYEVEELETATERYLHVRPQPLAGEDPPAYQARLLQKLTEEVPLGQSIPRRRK
Outline: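 Recombinant human HOIP fragment (E. coli) preincubated with compounds (100-0.005 μM, 1% DMSO) and E1 for 1 h at 25° C. E2 and substrates then added; reaction 2.5 h at 25° C. HTRF read-out, excitation 337 nm, emissions 665/620 nm.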

[2] = test system: NF-κB signaling pathway; assay: Cell-based dual luciferase NF-κB reporter assay (HEK293 cells, TNF stimulated); settings: Homo sapiens, HEK293
Outline: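 HEK293 cells transfected with Firefly luciferase and NF-κB-response-element NanoLuc plasmids; compounds at 100–0.005 µM in 1% DMSO. Cells stimulated with 2.5 ng/mL TNF 30 min after compound addition. Firefly and NanoLuc activities read after 6 h by Nano-Glo dual-luciferase detection.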

[3] = test system: bladder carcinoma RT4 cell line; assay: TNF-α-induced cytotoxicity assay (CellTiter-Glo viability); assay type: cell-based; settings: Homo sapiens, RT-4, 72 h
Outline: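 RT4 bladder carcinoma cells, 1000 per well, stimulated with 1.25 ng/mL TNFα together with compound for 72 h at 37° C., 5% CO2. Viability read by CellTiter-Glo luminescence, proportional to cellular ATP, as a measure of HOIP-dependent cytotoxicity.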

O=C(NC/C=C/S(=O)(=O)c1ccccc1)c1cc2c([nH]c1=O)CCN(C(=O)C1CC1)C2 [Example 109, N-[(2E)-3-(benzenesulfonyl)prop-2-en-1-yl]-6-cyclopropanecarbonyl-2-oxo-1,2,5,6,7,8-hexahydro-1,6-naphthyridine-3-carboxamide]
IC50 [1]: ≤ 1000 nM
IC50 [2]: ≤ 100000 nM
IC50 [3]: ≤ 100000 nM

CC(OC(=O)N1CCc2[nH]c(=O)c(C(=O)NC/C=C/S(=O)(=O)c3ccccc3)cc2C1)c1c(F)cccc1F (stereo not drawn) [Example 91, 1-(2,6-difluorophenyl)ethyl 3-{[(2E)-3-(benzenesulfonyl)prop-2-en-1-yl]carbamoyl}-2-oxo-1,2,5,6,7,8-hexahydro-1,6-naphthyridine-6-carboxylate]
IC50 [1]: ≤ 1000 nM
IC50 [2]: ≤ 1000 nM
IC50 [3]: ≤ 1000 nM

O=C(NC/C=C/S(=O)(=O)c1ccc(F)cc1Cl)c1cc2c([nH]c1=O)CCCC2 [Example 33, N-[(2E)-3-(2-chloro-4-fluorobenzenesulfonyl)prop-2-en-1-yl]-2-oxo-1,2,5,6,7,8-hexahydroquinoline-3-carboxamide]
IC50 [1]: ≤ 100 nM
IC50 [2]: ≤ 1000 nM
IC50 [3]: ≤ 1000 nM

O=C(NC/C=C/S(=O)(=O)c1ccccc1)c1cc(-c2ccccc2)c[nH]c1=O [Example 12, N-[(2E)-3-(benzenesulfonyl)prop-2-en-1-yl]-2-oxo-5-phenyl-1,2-dihydropyridine-3-carboxamide]
IC50 [1]: ≤ 1000 nM
IC50 [2]: ≤ 10000 nM
IC50 [3]: ≤ 10000 nM

CO[C@H]1CC[C@H](C(=O)N2CCc3[nH]c(=O)c(C(=O)NC/C=C/S(=O)(=O)c4ccccc4)cc3C2)CC1 [Example 107, N-[(2E)-3-(benzenesulfonyl)prop-2-en-1-yl]-2-oxo-6-[(1r,4r)-4-methoxycyclohexanecarbonyl]-1,2,5,6,7,8-hexahydro-1,6-naphthyridine-3-carboxamide]
IC50 [1]: ≤ 1000 nM
IC50 [2]: ≤ 100000 nM
IC50 [3]: ≤ 100000 nM

CC12CC(C(=O)N3CCc4[nH]c(=O)c(C(=O)NC/C=C/S(=O)(=O)c5ccccc5)cc4C3)(C1)C2 [Example 114, N-[(2E)-3-(benzenesulfonyl)prop-2-en-1-yl]-6-{3-methylbicyclo[1.1.1]pentane-1-carbonyl}-2-oxo-1,2,5,6,7,8-hexahydro-1,6-naphthyridine-3-carboxamide]
IC50 [1]: ≤ 1000 nM
IC50 [2]: ≤ 10000 nM
IC50 [3]: ≤ 100000 nM

O=C(NC/C=C/S(=O)(=O)c1ccccc1)c1cc2c([nH]c1=O)CCN(C(=O)OCCN1CCCCC1=O)C2 [Example 83, 2-(2-Oxopiperidin-1-yl)ethyl 3-{[(2E)-3-(benzenesulfonyl)prop-2-en-1-yl]carbamoyl}-2-oxo-1,2,5,6,7,8-hexahydro-1,6-naphthyridine-6-carboxylate]
IC50 [1]: ≤ 1000 nM
IC50 [2]: ≤ 100000 nM
IC50 [3]: ≤ 100000 nM

CC1(C)CCc2[nH]c(=O)c(C(=O)NC/C=C/S(=O)(=O)c3ccccc3)cc2C1 [Example 48, N-[(2E)-3-(benzenesulfonyl)prop-2-en-1-yl]-6,6-dimethyl-2-oxo-1,2,5,6,7,8-hexahydroquinoline-3-carboxamide]
IC50 [1]: ≤ 1000 nM
IC50 [2]: ≤ 1000 nM
IC50 [3]: ≤ 1000 nM

N=S(=O)(/C=C/CNC(=O)c1cc2c([nH]c1=O)CCCC2)c1cccc(Cl)c1 (stereo not drawn) [Example 134, N-[(2E)-3-[(3-chlorophenyl)(imino)oxo-λ^6-sulfanyl]prop-2-en-1-yl]-2-oxo-1,2,5,6,7,8-hexahydroquinoline-3-carboxamide]
IC50 [1]: ≤ 1000 nM
IC50 [2]: ≤ 1000 nM
IC50 [3]: ≤ 1000 nM

N#Cc1ccc(S(=O)(=O)/C=C/CNC(=O)c2cc3c([nH]c2=O)CCCC3)cc1 [Example 56, N-[(2E)-3-(4-cyanobenzenesulfonyl)prop-2-en-1-yl]-2-oxo-1,2,5,6,7,8-hexahydroquinoline-3-carboxamide]
IC50 [1]: ≤ 100 nM
IC50 [2]: ≤ 100 nM
IC50 [3]: ≤ 1000 nM

O=C(NC/C=C/S(=O)(=O)c1ccccc1)c1cc2c([nH]c1=O)CCN(C(=O)OC1CCC3(CC1)COC3)C2 [Example 79, 2-Oxaspiro[3.5]nonan-7-vi 3-{[(2E)-3-(benzenesulfonyl)prop-2-en-1-yl]carbamoyl}-2-oxo-1,2,5,6,7,8-hexahydro-1,6-naphthyridine-6-carboxylate]
IC50 [1]: ≤ 100 nM
IC50 [2]: ≤ 10000 nM
IC50 [3]: ≤ 10000 nM

CC(C)(C)OC(=O)N1CCc2[nH]c(=O)c(C(=O)NC/C=C/S(=O)(=O)c3ccccc3F)cc2C1 [Example 22, tert-butyl 3-{[(2E)-3-(2-fluorobenzenesulfonyl)prop-2-en-1-yl]carbamoyl}-2-oxo-1,2,5,6,7,8-hexahydro-1,6-naphthyridine-6-carboxylate]
IC50 [1]: ≤ 100 nM
IC50 [2]: ≤ 1000 nM
IC50 [3]: ≤ 1000 nM

COc1ccc(S(=O)(=O)/C=C/CNC(=O)c2cc3c([nH]c2=O)CCCC3)cc1F [Example 19, N-[(2E)-3-(3-fluoro-4-methoxybenzenesulfonyl)prop-2-en-1-yl]-2-oxo-1,2,5,6,7,8-hexahydroquinoline-3-carboxamide]
IC50 [1]: ≤ 100 nM
IC50 [2]: ≤ 1000 nM
IC50 [3]: ≤ 1000 nM

COc1ccc(S(=N)(=O)/C=C/CNC(=O)c2cc3c([nH]c2=O)CCCC3)cc1F (stereo not drawn) [Example 30, N-[(2E)-3-[(3-fluoro-4-methoxyphenyl)(imino)oxo-λ^6-sulfanyl]prop-2-en-1-yl]-2-oxo-1,2,5,6,7,8-hexahydroquinoline-3-carboxamide]
IC50 [1]: ≤ 100 nM
IC50 [2]: ≤ 1000 nM
IC50 [3]: ≤ 1000 nM

COc1ccc(S(=N)(=O)/C=C/CNC(=O)c2cc3c([nH]c2=O)CCCCC3)cc1F (stereo not drawn) [Example 150, N-[(2E)-3-[(3-fluoro-4-methoxyphenyl)(imino)oxo-λ^6-sulfanyl]prop-2-en-1-yl]-2-oxo-1H,2H,5H,6H,7H,8H,9H-cyclohepta[b]pyridine-3-carboxamide]
IC50 [1]: ≤ 1000 nM
IC50 [2]: ≤ 10000 nM
IC50 [3]: ≤ 1000 nM

[2H]C([2H])(/C=C/S(=O)(=O)c1ccccc1)NC(=O)c1cc2c([nH]c1=O)CCCC2 [Example 53, N-[(2E)-3-(benzenesulfonyl)(1,1-^2H2)prop-2-en-1-yl]-2-oxo-1,2,5,6,7,8-hexahydroquinoline-3-carboxamide]
IC50 [1]: ≤ 1000 nM
IC50 [2]: ≤ 1000 nM
IC50 [3]: ≤ 1000 nM

O=C(NC/C=C/S(=O)(=O)c1ccc(Cl)cc1Cl)c1cc(-c2ccccc2)c[nH]c1=O [Example 126, N-[(2E)-3-(2,4-dichlorobenzenesulfonyl)prop-2-en-1-yl]-2-oxo-5-phenyl-1,2-dihydropyridine-3-carboxamide]
IC50 [1]: ≤ 100 nM
IC50 [2]: ≤ 1000 nM
IC50 [3]: ≤ 10000 nM

O=C(NC/C=C/S(=O)(=O)c1ccccc1)c1cc2c([nH]c1=O)CCN(C(=O)OC1CCCC1)C2 [Example 84, cyclopentyl 3-{[(2E)-3-(benzenesulfonyl)prop-2-en-1-yl]carbamoyl}-2-oxo-1,2,5,6,7,8-hexahydro-1,6-naphthyridine-6-carboxylate]
IC50 [1]: ≤ 100 nM
IC50 [2]: ≤ 1000 nM
IC50 [3]: ≤ 1000 nM

COc1ccc(S(=N)(=O)/C=C/CNC(=O)c2cc(-c3ccccc3)c[nH]c2=O)cc1F (stereo not drawn) [Example 149, N-[(2E)-3-[(3-fluoro-4-methoxyphenyl)(imino)oxo-λ^6-sulfanyl]prop-2-en-1-yl]-2-oxo-5-phenyl-1,2-dihydropyridine-3-carboxamide]
IC50 [1]: ≤ 1000 nM
IC50 [2]: ≤ 10000 nM
IC50 [3]: ≤ 10000 nM

COc1cccc(S(=N)(=O)/C=C/CNC(=O)c2cc3c([nH]c2=O)CCCC3)c1 (stereo not drawn) [Example 64, N-[(2E)-3-[imino(3-methoxyphenyl)oxo-λ^6-sulfanyl]prop-2-en-1-yl]-2-oxo-1,2,5,6,7,8-hexahydroquinoline-3-carboxamide]
IC50 [1]: ≤ 1000 nM
IC50 [2]: ≤ 1000 nM
IC50 [3]: ≤ 1000 nM

N=S(=O)(/C=C/CNC(=O)c1cc2c([nH]c1=O)CCCC2)c1ccc(F)cc1F (stereo not drawn) [Example 135, N-[(2E)-3-[(2,4-difluorophenyl)(imino)oxo-λ^6-sulfanyl]prop-2-en-1-yl]-2-oxo-1,2,5,6,7,8-hexahydroquinoline-3-carboxamide]
IC50 [1]: ≤ 1000 nM
IC50 [2]: ≤ 1000 nM
IC50 [3]: ≤ 10000 nM

CC(C)(C)NC(=O)N1CCc2[nH]c(=O)c(C(=O)NC/C=C/S(=O)(=O)c3ccc(Cl)cc3)cc2C1 [Example 99, N6-tert-butyl-N3-[(2E)-3-(4-chlorobenzenesulfonyl)prop-2-en-1-yl]-2-oxo-1,2,5,6,7,8-hexahydro-1,6-naphthyridine-3,6-dicarboxamide]
IC50 [1]: ≤ 1000 nM
IC50 [2]: ≤ 10000 nM
IC50 [3]: ≤ 10000 nM

O=C(NC/C=C/S(=O)(=O)c1ccc(Cl)cc1)c1cc2c([nH]c1=O)CCN(C(=O)NC1CC1)C2 [Example 101, N3-[(2E)-3-(4-chlorobenzenesulfonyl)prop-2-en-1-yl]-N6-cyclopropyl-2-oxo-1,2,5,6,7,8-hexahydro-1,6-naphthyridine-3,6-dicarboxamide]
IC50 [1]: ≤ 1000 nM
IC50 [2]: ≤ 100000 nM
IC50 [3]: ≤ 100000 nM
